From BindingDB's records for doi:10.1021/acs.jmedchem.1c00408 (Virginia Commonwealth University, 2021) come the findings set out here.

The structures appear in SMILES notation.

Experiment [1] is described as follows: Inhibition of CCR5-mediated HIV-1 Bal entry in human GHOST CCR5 cells assessed as decrease in viral reverse transcriptase activity by measuring [3H]thymidine triphosphate incorporation measured after 60 to 90 mins by scintillation counting analysis.
A short description of experiment [2]: Inhibition of MOR-mediated HIV1 BaL01 infection in GFP-tagged human OPRM1 transfected TZM-bl cells co-expressing HIV1 - LTR assessed as inhibition of viral entry by measuring LTR-driven luciferase activity pretreated for 1 hr before infection measured after 2 to 3 days of infection.
Experiment [3] in a line: Inhibition of MOR-mediated HIV1 BaL01 infection in GFP-tagged human OPRM1 transfected TZM-bl cells co-expressing HIV1 - LTR assessed as inhibition of viral entry in presence of morphine by measuring LTR-driven luciferase activity pretreated for 1 hr before infection measured after 2 to 3 days of infection.

For the compound `Cc1nnc(C(C)C)n1C1C[C@H]2CC[C@@H](C1)N2CC[C@H](NC(=O)C1CCC(F)(F)CC1)c1ccc(NC(=O)COCC(=O)NCCCCCCCNC(=O)COCC(=O)N[C@@H]2CC[C@@]3(O)[C@H]4Cc5ccc(O)c6c5[C@@]3(CCN4CC3CC3)[C@H]2O6)cc1` (some centres undefined), in experiment [1], the EC50 was above 100000 nM.
Consider `CC(C)c1nnc(CCNC(=O)COCC(=O)NCCCCCCCNC(=O)COCC(=O)N[C@@H]2CC[C@@]3(O)[C@H]4Cc5ccc(O)c6c5[C@@]3(CCN4CC3CC3)[C@H]2O6)n1C1C[C@H]2CC[C@@H](C1)N2CC[C@H](NC(=O)C1CCC(F)(F)CC1)c1ccccc1` (some centres undefined), for which the EC50 in experiment [1] stood at 93 nM; in experiment [2], 368 nM; in experiment [3], 247 nM.

A word on the EC50: it is the concentration at which the effect is half-maximal.
